Data as given in ChEMBL document CHEMBL5465560, “Selectivity Literature for EUbOPEN Chemogenomic Library” (2024).
One block for each molecule: values may come before it.

What was measured:
Misshapen-like kinase 1 = Misshapen-like kinase 1 (Homo sapiens, UniProt Q8N4C8); test: Selectivity interaction (Kinase panel (Z-LYTE Assay)) EUB0001632a MINK1; conditions: at 10 µM
[1] = molecular target: ATPase family AAA domain-containing protein 2 (Homo sapiens) (UniProt Q6PL18); test: Selectivity interaction (Human bromodomain panel (DSF assay)) EUB0000233b ATAD2
[2] = molecular target: Ribosomal protein S6 kinase alpha-6 (Homo sapiens, UniProt Q9UK32); test: Selectivity interaction (KinomeScan (DiscoverX)) EUB0000311b RPS6KA6; conditions: at 1 µM
[3] = molecular target: MAP kinase-activated protein kinase 2 (Homo sapiens, UniProt P49137); test: Selectivity interaction (Kinase panel (literature)) EUB0001199aCl MAPKAPK2; conditions: at 1 µM
[4] = molecular target: T1, Rhodopsin kinase GRK7 (Homo sapiens) (UniProt Q8WTQ7); test: Selectivity interaction (KinomeScan (DiscoverX)) EUB0000607a GRK7; conditions: at 10 µM
T1 sequence (whole entry): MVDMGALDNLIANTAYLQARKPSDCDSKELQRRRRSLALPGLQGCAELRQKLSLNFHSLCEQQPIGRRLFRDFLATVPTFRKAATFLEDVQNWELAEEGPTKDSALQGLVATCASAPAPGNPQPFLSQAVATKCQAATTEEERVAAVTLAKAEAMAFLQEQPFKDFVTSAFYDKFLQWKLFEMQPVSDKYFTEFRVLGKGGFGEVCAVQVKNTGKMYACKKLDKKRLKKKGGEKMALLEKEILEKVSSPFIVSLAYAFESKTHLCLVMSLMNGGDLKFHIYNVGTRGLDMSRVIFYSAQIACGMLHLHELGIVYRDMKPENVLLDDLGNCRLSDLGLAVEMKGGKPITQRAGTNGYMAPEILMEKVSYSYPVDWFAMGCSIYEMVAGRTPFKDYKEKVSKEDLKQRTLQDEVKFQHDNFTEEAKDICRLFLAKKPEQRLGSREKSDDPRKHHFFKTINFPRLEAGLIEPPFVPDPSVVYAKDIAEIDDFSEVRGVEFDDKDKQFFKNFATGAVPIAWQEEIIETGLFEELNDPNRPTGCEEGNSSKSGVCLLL

[5] = molecular target: Tyrosine-protein kinase CSK (Homo sapiens) (UniProt P41240); test: Selectivity interaction (ActivX KiNativ screen (kinase selectivity in THP-1 cell lysates)) EUB0000639a CSK; assay type: subcellular; conditions: lysate, at 0.01 µM
[6] = molecular target: T2, Serine/threonine-protein kinase TAO3 (Homo sapiens) (UniProt Q9H2K8); test: Selectivity interaction (Kinase panel (Invitrogen)) EUB0000639a TAOK3; conditions: at 200 nM
T2 sequence (whole entry): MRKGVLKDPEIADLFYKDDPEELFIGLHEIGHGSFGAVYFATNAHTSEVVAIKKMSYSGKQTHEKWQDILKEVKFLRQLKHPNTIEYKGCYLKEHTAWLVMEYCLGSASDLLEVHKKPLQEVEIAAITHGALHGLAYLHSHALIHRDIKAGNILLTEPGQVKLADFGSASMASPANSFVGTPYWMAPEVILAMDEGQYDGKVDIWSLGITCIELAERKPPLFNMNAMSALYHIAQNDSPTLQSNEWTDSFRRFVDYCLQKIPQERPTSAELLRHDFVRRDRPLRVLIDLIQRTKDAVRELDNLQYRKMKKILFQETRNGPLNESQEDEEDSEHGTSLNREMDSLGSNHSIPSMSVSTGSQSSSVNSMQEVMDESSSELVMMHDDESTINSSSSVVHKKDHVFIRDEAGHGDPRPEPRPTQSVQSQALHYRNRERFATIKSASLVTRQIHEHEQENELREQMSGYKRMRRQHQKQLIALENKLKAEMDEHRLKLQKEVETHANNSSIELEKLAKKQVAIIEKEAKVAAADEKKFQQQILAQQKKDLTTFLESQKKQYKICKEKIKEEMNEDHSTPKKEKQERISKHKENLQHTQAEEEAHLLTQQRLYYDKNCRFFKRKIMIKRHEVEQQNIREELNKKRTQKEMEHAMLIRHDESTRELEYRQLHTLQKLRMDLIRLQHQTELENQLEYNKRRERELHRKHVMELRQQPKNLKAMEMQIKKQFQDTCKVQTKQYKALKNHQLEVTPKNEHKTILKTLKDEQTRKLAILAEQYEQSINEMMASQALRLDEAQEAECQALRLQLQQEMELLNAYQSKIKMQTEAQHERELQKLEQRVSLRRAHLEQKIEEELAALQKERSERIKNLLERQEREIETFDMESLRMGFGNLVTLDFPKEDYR

[7] = molecular target: Cyclin-dependent kinase 7 (Homo sapiens, UniProt P50613); test: Selectivity interaction (KinomeScan (DiscoverX)) EUB0000595a CDK7; conditions: at 10 µM
[8] = molecular target: Protein arginine N-methyltransferase 3 (Homo sapiens, UniProt O60678); conditions: at 1 µM
[9] = molecular target: Cyclin-dependent kinase 18 (Homo sapiens) (UniProt Q07002); test: Selectivity interaction (KinomeScan (DiscoverX)) EUB0000229b CDK18; conditions: at 10 µM
[10] = molecular target: cAMP-dependent protein kinase catalytic subunit alpha (Homo sapiens, UniProt P17612); test: Selectivity interaction (KinomeScan (DiscoverX)) EUB0000092b PRKACA; conditions: at 10 µM
[11] = molecular target: 5'-AMP-activated protein kinase catalytic subunit alpha-2 (Homo sapiens) (UniProt P54646); conditions: at 10 µM
[12] = molecular target: Serine/threonine-protein kinase tousled-like 2 (Homo sapiens) (UniProt Q86UE8); test: Selectivity interaction (ActivX KiNativ screen (ex vivo kinase selectivity in human PBMCs)) EUB0001619a TLK2; assay type: cell-based; conditions: PBMC, at 1 µM

Chain of MAP kinase-activated protein kinase 2 (P49137 whole entry, looked up): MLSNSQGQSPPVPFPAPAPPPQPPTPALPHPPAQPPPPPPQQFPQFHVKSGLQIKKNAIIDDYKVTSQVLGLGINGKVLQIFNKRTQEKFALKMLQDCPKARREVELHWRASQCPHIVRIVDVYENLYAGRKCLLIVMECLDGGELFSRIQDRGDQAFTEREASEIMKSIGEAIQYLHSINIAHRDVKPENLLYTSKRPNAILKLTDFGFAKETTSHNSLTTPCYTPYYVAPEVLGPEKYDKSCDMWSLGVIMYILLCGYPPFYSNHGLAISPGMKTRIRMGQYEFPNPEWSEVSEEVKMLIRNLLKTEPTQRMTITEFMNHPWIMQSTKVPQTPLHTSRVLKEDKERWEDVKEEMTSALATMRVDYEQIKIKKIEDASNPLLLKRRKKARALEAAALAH
Chain of Tyrosine-protein kinase CSK (Homo sapiens) (P41240 2-450 limits assumed): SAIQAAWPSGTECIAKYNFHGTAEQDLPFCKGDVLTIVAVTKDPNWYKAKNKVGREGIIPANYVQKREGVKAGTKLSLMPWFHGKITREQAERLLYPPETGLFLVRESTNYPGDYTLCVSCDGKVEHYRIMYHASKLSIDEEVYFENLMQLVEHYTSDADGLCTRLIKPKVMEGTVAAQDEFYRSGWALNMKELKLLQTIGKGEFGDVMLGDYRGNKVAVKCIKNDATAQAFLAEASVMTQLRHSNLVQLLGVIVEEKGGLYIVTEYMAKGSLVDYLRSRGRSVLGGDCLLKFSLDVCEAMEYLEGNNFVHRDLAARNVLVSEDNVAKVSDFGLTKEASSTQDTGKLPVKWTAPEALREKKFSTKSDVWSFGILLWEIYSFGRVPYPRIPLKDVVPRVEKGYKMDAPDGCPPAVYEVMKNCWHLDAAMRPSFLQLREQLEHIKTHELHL
Chain of Misshapen-like kinase 1 (Q8N4C8 whole entry, looked up, the tested form may be a part): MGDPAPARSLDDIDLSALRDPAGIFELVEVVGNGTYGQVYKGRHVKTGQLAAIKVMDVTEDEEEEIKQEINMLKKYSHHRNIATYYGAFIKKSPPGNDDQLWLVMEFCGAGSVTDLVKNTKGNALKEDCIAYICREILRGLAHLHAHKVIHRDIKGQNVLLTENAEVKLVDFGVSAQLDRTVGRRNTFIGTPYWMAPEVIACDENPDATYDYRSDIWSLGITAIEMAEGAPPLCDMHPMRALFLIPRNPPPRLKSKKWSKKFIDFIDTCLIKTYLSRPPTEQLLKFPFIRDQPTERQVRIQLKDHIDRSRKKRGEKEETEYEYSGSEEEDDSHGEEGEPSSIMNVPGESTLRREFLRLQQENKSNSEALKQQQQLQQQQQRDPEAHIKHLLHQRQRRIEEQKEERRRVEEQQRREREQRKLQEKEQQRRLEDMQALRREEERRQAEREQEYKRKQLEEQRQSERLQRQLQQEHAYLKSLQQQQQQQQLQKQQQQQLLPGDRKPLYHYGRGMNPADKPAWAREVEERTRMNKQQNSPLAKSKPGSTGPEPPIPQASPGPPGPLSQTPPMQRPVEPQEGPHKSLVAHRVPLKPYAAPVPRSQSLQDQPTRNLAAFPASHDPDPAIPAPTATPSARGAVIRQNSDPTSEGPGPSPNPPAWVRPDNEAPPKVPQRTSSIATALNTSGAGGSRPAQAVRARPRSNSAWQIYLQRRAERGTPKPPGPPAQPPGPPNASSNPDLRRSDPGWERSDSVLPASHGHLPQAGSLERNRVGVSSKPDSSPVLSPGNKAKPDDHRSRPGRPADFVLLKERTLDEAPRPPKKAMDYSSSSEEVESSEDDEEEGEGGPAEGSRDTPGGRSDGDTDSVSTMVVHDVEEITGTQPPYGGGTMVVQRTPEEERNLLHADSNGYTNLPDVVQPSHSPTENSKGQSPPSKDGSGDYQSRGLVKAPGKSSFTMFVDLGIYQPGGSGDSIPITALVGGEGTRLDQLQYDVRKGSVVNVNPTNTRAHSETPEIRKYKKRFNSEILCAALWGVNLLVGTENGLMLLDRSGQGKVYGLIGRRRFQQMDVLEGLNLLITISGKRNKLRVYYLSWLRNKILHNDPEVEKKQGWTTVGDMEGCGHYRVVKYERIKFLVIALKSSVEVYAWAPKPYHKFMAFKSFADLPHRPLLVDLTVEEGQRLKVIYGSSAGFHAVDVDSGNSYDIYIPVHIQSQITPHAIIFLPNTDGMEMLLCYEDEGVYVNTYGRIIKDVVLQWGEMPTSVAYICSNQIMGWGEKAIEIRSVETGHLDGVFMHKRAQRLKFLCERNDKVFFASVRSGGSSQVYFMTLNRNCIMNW
Chain of Cyclin-dependent kinase 18 (Homo sapiens) (Q07002 whole entry): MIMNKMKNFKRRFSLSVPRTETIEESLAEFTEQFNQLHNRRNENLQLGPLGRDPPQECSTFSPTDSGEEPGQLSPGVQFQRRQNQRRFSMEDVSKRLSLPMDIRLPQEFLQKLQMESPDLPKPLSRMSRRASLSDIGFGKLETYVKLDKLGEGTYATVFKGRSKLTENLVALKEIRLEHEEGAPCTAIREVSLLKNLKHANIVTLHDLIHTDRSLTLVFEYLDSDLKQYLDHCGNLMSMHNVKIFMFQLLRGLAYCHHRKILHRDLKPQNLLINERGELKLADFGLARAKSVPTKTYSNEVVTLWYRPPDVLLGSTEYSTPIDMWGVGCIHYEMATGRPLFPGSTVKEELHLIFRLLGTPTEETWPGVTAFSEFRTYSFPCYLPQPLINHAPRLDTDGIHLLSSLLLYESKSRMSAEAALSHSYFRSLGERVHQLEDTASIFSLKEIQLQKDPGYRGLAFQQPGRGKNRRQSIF
Chain of Cyclin-dependent kinase 7 (P50613 whole entry): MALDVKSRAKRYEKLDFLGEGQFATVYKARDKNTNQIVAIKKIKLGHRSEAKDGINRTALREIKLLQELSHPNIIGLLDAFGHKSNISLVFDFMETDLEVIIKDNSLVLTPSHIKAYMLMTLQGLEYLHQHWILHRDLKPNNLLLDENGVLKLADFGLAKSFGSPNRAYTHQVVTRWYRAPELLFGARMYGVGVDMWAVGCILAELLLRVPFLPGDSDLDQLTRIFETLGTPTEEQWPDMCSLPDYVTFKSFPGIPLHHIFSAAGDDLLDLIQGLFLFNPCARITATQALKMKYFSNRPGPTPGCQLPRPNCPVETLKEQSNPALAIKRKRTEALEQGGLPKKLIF
Chain of 5'-AMP-activated protein kinase catalytic subunit alpha-2 (Homo sapiens) (P54646 whole entry, looked up): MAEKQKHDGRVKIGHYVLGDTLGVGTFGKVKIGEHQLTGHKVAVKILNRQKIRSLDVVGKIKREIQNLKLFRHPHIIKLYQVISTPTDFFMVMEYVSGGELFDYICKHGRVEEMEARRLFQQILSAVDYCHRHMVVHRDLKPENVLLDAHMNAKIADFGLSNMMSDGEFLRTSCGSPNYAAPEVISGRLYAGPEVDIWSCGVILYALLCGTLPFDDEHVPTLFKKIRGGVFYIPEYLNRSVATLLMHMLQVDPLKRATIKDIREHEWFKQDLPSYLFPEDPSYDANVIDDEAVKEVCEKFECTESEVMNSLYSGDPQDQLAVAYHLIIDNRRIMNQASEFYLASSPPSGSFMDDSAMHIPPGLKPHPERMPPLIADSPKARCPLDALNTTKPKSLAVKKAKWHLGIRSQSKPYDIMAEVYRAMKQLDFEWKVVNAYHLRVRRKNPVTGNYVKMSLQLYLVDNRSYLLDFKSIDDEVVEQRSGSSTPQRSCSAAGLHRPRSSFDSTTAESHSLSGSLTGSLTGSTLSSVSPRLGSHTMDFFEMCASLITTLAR
Chain of ATPase family AAA domain-containing protein 2 (Homo sapiens) (Q6PL18 whole entry, the tested form may be a part): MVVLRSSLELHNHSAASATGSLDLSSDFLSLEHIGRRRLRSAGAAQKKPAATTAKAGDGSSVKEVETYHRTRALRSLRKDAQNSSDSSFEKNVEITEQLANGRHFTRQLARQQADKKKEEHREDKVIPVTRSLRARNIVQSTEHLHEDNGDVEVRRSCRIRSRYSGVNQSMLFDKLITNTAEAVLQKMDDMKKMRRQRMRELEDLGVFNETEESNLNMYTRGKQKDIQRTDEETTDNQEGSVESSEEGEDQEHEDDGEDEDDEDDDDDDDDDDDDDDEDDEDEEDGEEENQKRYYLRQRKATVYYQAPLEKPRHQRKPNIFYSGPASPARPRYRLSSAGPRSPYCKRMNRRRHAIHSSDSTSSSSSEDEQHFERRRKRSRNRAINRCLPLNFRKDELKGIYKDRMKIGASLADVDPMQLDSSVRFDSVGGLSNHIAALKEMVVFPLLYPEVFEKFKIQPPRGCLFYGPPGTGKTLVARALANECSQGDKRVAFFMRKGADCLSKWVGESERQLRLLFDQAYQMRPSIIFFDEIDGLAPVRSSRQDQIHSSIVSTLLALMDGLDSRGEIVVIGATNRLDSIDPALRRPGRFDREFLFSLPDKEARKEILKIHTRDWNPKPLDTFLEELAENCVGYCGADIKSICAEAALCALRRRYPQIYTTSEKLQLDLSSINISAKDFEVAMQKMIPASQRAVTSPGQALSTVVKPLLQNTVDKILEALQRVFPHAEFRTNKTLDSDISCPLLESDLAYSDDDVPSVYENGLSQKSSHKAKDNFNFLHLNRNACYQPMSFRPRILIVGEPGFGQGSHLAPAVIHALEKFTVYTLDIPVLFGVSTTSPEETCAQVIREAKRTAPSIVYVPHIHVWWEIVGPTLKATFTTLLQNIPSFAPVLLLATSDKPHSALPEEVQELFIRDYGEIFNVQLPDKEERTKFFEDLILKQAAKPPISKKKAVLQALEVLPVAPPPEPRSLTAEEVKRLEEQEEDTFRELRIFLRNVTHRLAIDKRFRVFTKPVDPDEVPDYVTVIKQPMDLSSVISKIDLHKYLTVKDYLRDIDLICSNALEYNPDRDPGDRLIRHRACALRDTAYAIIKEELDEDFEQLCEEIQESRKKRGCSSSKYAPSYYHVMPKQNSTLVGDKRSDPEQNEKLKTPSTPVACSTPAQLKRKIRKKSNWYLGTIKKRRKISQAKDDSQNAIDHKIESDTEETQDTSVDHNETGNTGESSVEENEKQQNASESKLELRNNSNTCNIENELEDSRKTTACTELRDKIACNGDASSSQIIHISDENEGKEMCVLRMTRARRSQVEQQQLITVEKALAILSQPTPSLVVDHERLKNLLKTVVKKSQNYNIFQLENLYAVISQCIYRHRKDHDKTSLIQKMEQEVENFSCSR

% of control (Misshapen-like kinase 1): -3.28%
SMILES: Cn1cc(-n2cnc3c(NCc4nc5cc(Cl)c(Cl)cc5[nH]4)nc(N4CCOCC4)nc32)cn1

dTM [1]: < 2 K
SMILES: CN(C)CCCOc1ccc(-c2cc(NCCCn3cccn3)nc(S(C)(=O)=O)n2)cc1

% of control [2]: 2.9%
SMILES: CCc1ccccc1C(=O)Nc1n[nH]c2c(C)c(F)c(C3C(C#N)=C(C)N(C)C(C)=C3C#N)cc12 [BAY-3827]

% of inhibition [3]: 3%
SMILES: CN1Cc2nccc(-c3cn(C)nc3-c3ccc(F)cc3)c2C1=O

SMILES: CNC(=O)Nc1ccc(-c2nc(N3CC4CCC(C3)O4)c3cnn(C4CCC5(CC4)OCCO5)c3n2)cc1
% of control [4]: 91%

% of inhibition [5]: 2.3%
% of inhibition [6]: -1.02%
SMILES: CC[C@@H]1[C@H](F)C(=O)N[C@@H]1COc1nccc2cc(C(N)=O)c(OC)cc12 [ZIMLOVISERTIB]

SMILES: COCC(=O)NC/C=C/c1ccc2ncnc(Nc3ccc(Oc4ccc(C)nc4)c(C)c3)c2c1 [CP-724714]
% of control [7]: 100%

% activity [8]: > 90%
SMILES: CNCCN1CCC(c2cc(CN(C)C(=O)c3cccc(Oc4ccccc4)c3)ccn2)CC1

SMILES: COc1cc(N(C)c2ccnc3ccc(C(F)(F)F)cc23)cc(OC)c1OC
% binding [9]: 91%

SMILES: CCC(=O)N1CCN(c2ccc(-n3c(=O)ccc4cnc5ccc(-c6cnc7ccccc7c6)cc5c43)cc2C(F)(F)F)CC1
% of control [10]: 79%

SMILES: Cc1cc([C@@H](C)Nc2ccccc2C(=O)O)c2nc(N3CCOCC3)cc(=O)n2c1 [AZD-6482]
% of control [11]: 88%

SMILES: N#Cc1cccc(-c2c[nH]c3ncnc(N4CCOCC4)c23)c1
% of inhibition [12]: -21%
